Measured values: publication PMC5909473, “Isoform-selective activity-based profiling of ERK signaling” (Chemical Science, 2018)
pIC50: −log10 of the molar value.

Columns and labels:
[1] = target: T1, ERK2 (Homo sapiens, UniProt P28482); assay: competition of ATP acyl phosphate probe labelling by […] free ATP, SILAC LC-MS/MS; type: cell-based
T1 construct: gene MAPK1; native endogenous ERK2 in lung cancer cell proteomes

[2] = target: T2, ERK1 (Homo sapiens, UniProt P27361); assay: as above; type: cell-based; set-up: gene MAPK3; native endogenous ERK1 in lung cancer cell proteomes
[3] = target: T2, ERK1; assay: competitive ATP acyl phosphate activity-based profiling, SILAC LC-MS/MS in A549 lysate; type: biochemical; set-up: gene MAPK3; native endogenous ERK1 in A549 soluble proteome

T2 sequence (P27361 2-379): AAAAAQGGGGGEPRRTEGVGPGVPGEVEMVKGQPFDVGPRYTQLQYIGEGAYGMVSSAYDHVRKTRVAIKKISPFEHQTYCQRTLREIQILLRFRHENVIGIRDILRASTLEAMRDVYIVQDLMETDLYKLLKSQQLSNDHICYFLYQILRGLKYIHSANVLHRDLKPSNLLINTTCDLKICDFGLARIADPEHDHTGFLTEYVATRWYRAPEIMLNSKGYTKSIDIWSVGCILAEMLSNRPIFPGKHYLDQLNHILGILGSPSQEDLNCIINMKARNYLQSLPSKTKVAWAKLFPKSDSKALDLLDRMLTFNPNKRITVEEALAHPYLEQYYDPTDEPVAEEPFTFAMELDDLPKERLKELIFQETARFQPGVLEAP
T1 sequence (P28482 2-360): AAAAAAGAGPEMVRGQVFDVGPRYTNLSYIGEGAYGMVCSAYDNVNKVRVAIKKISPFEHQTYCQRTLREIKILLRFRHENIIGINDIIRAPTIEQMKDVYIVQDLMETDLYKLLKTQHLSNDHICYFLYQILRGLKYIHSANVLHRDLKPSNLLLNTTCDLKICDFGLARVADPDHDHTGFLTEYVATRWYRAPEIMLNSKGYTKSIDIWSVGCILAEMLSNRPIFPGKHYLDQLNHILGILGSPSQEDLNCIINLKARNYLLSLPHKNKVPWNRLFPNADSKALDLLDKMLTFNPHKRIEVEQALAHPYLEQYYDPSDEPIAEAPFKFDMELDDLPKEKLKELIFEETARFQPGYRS

SMILES | competition of ATP acyl phosphate probe labelling by 1 mM free ATP, SILAC LC-MS/ [1] | competition of ATP acyl phosphate probe labelling by 1 mM free ATP, SILAC LC-MS/ [2] | pIC50 [3]
Nc1ncnc2c1ncn2[C@@H]1O[C@H](COP(=O)(O)OP(=O)(O)OP(=O)(O)O)[C@@H](O)[C@H]1O [ATP] | both ERK1 and ERK2 probe-modified peptides were highly competed with ATP treatment | both ERK1 and ERK2 probe-modified peptides were highly competed with ATP treatment | –
CC(C)Nc1cc(-c2c[nH]c(C(=O)N[C@H](CO)c3cccc(Cl)c3)c2)c(Cl)cn1 [BVD-523] | – | – | 7.82
